Results from patent US7285556B2, “Thienopyrimidine-based inhibitors of the src family” (Board of Regents, The University of Texas Systems, priority 2000, dated 2007).
Where two headings read alike, the source gives them in different places.

Assays:
Recombinant human Src = biological target: T1, Recombinant human Src (Homo sapiens, UniProt P12931); assay: Src tyrosine kinase activity, poly E4Y and 32P-ATP; assay type: biochemical
T1 construct: made in house; host or cells: baculovirus-insect cell system
Outline: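 Recombinant GST-Csk (E. coli) or baculovirus-expressed human Src assayed on poly E4Y in 0.15 M EPPS-NaOH pH 8.0, 6 mM MgCl2, 0.2 mM γ32P-ATP, 10% glycerol, 0.1% Triton X-100. Read-out is 32P incorporation into poly E4Y; for ATP variation (0–250 μM), poly E4Y held at 150 μg/ml.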

Csk = biological target: T2, Csk (Homo sapiens, UniProt P41240); assay: Csk tyrosine kinase activity, poly E4Y and 32P-ATP; assay type: biochemical; conditions: screening assay, 50 μg/ml poly E4Y, 0.2 mM 32P-ATP
T2 construct: GST (glutathione-S-transferase) (N); made in house; host or cells: E. coli (pGEX vector)
Experimental: Recombinant human Src was expressed using the baculovirus-insect cell system and purified as published (Budde et al., 1993 and 2000). Recombinant Csk and the FGF receptor (FGFr) were expressed as glutathione-S-transferase fusion proteins using the pGEX expression vector and E. coli, and purified as described (Sun & Budde, 1995).
The tyrosine kinase activity of Src, Csk and FGFr was determined using poly E4Y and ^32P-ATP. Briefly, enzymes were assayed in a reaction mixture consisting of 0.15 M EPPS-NaOH (pH 8.0) with 6 mM MgCl2, 0.2 mM γ^32P-ATP (0.2-0.4 mCi/μmol), 10% glycerol, 0.1% Triton X-100, and poly E4Y. Poly E4Y is a synthetic peptide whose phosphorylation is measured in this assay by the addition of the radioactively labeled phosphate from the ATP (Budde et al., 1995). […] When ATP was varied (0, 50, 100 and 250 μM), poly E4Y was kept constant at 150 μg/ml.

[1] = Table 2, read-out: Src IC50 (especially good inhibitors of Src)
[2] = read-out: IC50 (preferred compounds for treatment of Src family-related disease)
[3] = screening assay, 50 μg/ml poly E4Y, 0.2 mM 32P-ATP, read-out: Src IC50

T1 sequence (P12931 whole entry): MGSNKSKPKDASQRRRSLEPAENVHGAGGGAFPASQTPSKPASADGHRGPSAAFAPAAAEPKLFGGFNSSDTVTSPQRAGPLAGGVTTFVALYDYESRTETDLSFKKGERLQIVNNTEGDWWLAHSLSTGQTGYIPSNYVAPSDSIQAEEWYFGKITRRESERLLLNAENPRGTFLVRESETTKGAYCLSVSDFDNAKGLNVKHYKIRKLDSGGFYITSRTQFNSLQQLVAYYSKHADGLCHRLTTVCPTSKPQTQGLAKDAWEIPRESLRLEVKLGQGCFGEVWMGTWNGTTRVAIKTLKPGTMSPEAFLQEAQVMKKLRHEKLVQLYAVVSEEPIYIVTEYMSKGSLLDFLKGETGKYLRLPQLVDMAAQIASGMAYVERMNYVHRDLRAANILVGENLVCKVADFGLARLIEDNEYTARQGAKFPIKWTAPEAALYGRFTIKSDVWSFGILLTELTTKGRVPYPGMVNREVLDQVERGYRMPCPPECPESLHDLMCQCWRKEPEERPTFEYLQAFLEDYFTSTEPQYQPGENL
T2 sequence (P41240 whole entry, species assumed): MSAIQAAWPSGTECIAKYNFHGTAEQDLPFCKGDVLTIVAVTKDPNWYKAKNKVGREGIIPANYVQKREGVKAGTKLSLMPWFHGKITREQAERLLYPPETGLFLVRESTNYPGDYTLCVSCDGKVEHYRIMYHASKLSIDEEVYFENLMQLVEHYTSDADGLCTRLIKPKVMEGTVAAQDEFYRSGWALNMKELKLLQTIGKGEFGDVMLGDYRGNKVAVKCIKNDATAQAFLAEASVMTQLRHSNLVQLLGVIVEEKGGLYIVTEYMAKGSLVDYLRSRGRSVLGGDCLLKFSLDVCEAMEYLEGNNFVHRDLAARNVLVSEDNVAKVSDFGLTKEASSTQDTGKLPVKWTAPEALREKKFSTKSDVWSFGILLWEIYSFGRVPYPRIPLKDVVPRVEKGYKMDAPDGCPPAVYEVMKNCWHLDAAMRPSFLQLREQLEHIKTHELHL

COc1ccc(C=NNc2ncnc3cc(I)sc23)cc1O [Compound 397, 3-Hydroxy-4-Methoxybenzaldehyde(6-iodothieno[3,2-d]pyrimidin-4-yl)hydrazone]
IC50 (Recombinant human Src; [1]): ≤ 2000 nM
IC50 (Recombinant human Src; [2]): < 2000 nM
IC50 (Csk): > 117000 nM

Clc1ccccc1-c1cc2ncnc(NN=Cc3cccnc3)c2s1 [Compound 317, 3-Pyridinecarboxaldehyde(6-(2-chlorophenyl)thieno[3,2-d]pyrimidin-4-yl)hydrazone]
IC50 (Recombinant human Src; [1]): ≤ 2000 nM
IC50 (Recombinant human Src; [2]): < 2000 nM
IC50 (Csk): > 137000 nM

C(=NNc1ncnc2cc(-c3ccccc3)sc12)c1ccncc1 [Compound 252, 4-Pyridinecarboxaldehyde(6-phenylthieno[3,2-d]pyrimidin-4-yl)hydrazone]
IC50 (Recombinant human Src; [1]): ≤ 2000 nM
IC50 (Recombinant human Src; [2]): < 2000 nM
IC50 (Csk): > 151000 nM

Cc1c(/C=C/c2ccccc2)sc2c(NN=Cc3cccnc3)ncnc12 [Compound 447, 3-Pyridinecarboxaldehyde(7-methyl-6-(trans-2-phenylvinyl)-thieno[3,2-d]pyrimidin-4-yl)hydrazone]
IC50 (Recombinant human Src; [1]): ≤ 2000 nM
IC50 (Recombinant human Src; [2]): < 2000 nM
IC50 (Csk): > 135000 nM

Cc1csc2c(NN=Cc3cccc(O)c3)ncnc12 [Compound 32, 3-Hydroxybenzaldehyde(7-methylthieno[3,2-d]pyrimidin-4-yl)hydrazone]
IC50 (Recombinant human Src; [1]): ≤ 2000 nM
IC50 (Recombinant human Src; [2]): < 2000 nM
IC50 (Csk): > 176000 nM

Cc1csc2c(NN=Cc3ccc([N+](=O)[O-])cc3)ncnc12 [Compound 24]
IC50 (Recombinant human Src; [3]): > 160000 nM
IC50 (Csk): > 160000 nM

CCc1csc2c(NN=Cc3cccnc3)ncnc12 [Compound 257, 3-Pyridinecarboxaldehyde(7-ethylthieno[3,2-d]pyrimidin-4-yl)hydrazone]
IC50 (Recombinant human Src; [1]): ≤ 2000 nM
IC50 (Recombinant human Src; [2]): < 2000 nM
IC50 (Csk): > 176000 nM

COc1ccc(C=NNc2ncnc3c(C)c(I)sc23)cc1O [Compound 375, 3-Hydroxy-4-methoxybenzaldehyde(6-iodo-7-methylthieno[3,2-d]pyrimidin-4-yl)hydrazone]
IC50 (Recombinant human Src; [1]): ≤ 2000 nM
IC50 (Recombinant human Src; [2]): < 2000 nM
IC50 (Csk): > 114000 nM

Cc1csc2c(NN=Cc3ccc(C#N)cc3)ncnc12 [Compound 121, 4-Cyanobenzaldehyde(7-methylthieno[3,2-d]pyrimidin-4-yl)hydrazone]
IC50 (Recombinant human Src; [1]): ≤ 2000 nM
IC50 (Recombinant human Src; [2]): < 2000 nM
IC50 (Csk): > 170000 nM

Cc1c(-c2ccsc2)sc2c(NN=Cc3cccnc3)ncnc12 [Compound 379, 3-Pyridinecarboxaldehyde(7-methyl-6-(3-thienyl)thieno[3,2-d]pyrimidin-4-yl)hydrazone]
IC50 (Recombinant human Src; [1]): ≤ 2000 nM
IC50 (Recombinant human Src; [2]): < 2000 nM
IC50 (Csk): > 142000 nM

Cc1c(-c2ccccc2Cl)sc2c(NN=Cc3cccs3)ncnc12 [Compound 391, 2-Thiophenecarboxaldehyde(6-(2-chlorophenyl)7-methylthieno[3,2-d]pyrimidin-4-yl)hydrazone]
IC50 (Recombinant human Src; [1]): ≤ 2000 nM
IC50 (Recombinant human Src; [2]): < 2000 nM
IC50 (Csk): > 130000 nM

Fc1ccc(-c2cc3ncnc(NN=Cc4cccnc4)c3s2)cc1 [Compound 278, 3-Pyridinecarboxaldehyde(6-(4-fluorophenyl)thieno[3,2-d]pyrimidin-4-yl)hydrazone]
IC50 (Recombinant human Src; [1]): ≤ 2000 nM
IC50 (Recombinant human Src; [2]): < 2000 nM
IC50 (Csk): > 143000 nM

COc1cccc(C=NNc2ncnc3c(C)csc23)c1 [Compound 137, 3-Methoxybenzaldehyde(7-methylthieno[3,2-d]pyrimidin-4-yl)hydrazone]
IC50 (Recombinant human Src; [1]): ≤ 2000 nM
IC50 (Recombinant human Src; [2]): < 2000 nM
IC50 (Csk): > 168000 nM

Cc1c(-c2ccccc2)sc2c(NN=Cc3cccs3)ncnc12 [Compound 361, 2-Thiophenecarboxaldehyde(7-methyl-6-phenylthieno[3,2-d]pyrimidin-4-yl)hydrazone]
IC50 (Recombinant human Src; [1]): ≤ 2000 nM
IC50 (Recombinant human Src; [2]): < 2000 nM
IC50 (Csk): > 143000 nM

Cc1csc2c(NN=Cc3ccccc3)ncnc12 [Compound 7, Benzaldehyde(7-methylthieno[3,2-d]pyrimidin-4-yl)hydrazone]
IC50 (Recombinant human Src; [1]): ≤ 2000 nM
IC50 (Recombinant human Src; [2]): < 2000 nM
IC50 (Csk): > 186000 nM

Cc1csc2c(NN=Cc3cccc(F)c3)ncnc12 [Compound 52, 3-Fluorobenzaldehyde(7-methylthieno[3,2-d]pyrimidin-4-yl)hydrazone]
IC50 (Recombinant human Src; [1]): ≤ 2000 nM
IC50 (Recombinant human Src; [2]): < 2000 nM
IC50 (Csk): > 175000 nM

COc1ccc(C=NNc2ncnc3c(C)c(-c4ccccc4)sc23)cc1O [Compound 362, 3-Hydroxy-4-methoxybenzaldehyde(7-methyl-6-phenylthieno[3,2-d]pyrimidin-4-yl)hydrazone]
IC50 (Recombinant human Src; [1]): ≤ 2000 nM
IC50 (Recombinant human Src; [2]): < 2000 nM
IC50 (Csk): > 128000 nM

Cc1csc2c(NN=Cc3ccncc3)ncnc12 [Compound 16, 4-Pyridinecarboxaldehyde(7-methylthieno[3,2-d]pyrimidin-4-yl)hydrazone]
IC50 (Recombinant human Src; [1]): ≤ 2000 nM
IC50 (Recombinant human Src; [2]): < 2000 nM
IC50 (Csk): > 186000 nM

Cc1c(-c2ccccc2Cl)sc2c(NN=Cc3cccnc3)ncnc12 [Compound 389, 3-Pyridinecarboxaldehyde(6-(2-chlorophenyl)7-methylthieno[3,2-d]pyrimidin-4-yl)hydrazone]
IC50 (Recombinant human Src; [1]): ≤ 2000 nM
IC50 (Recombinant human Src; [2]): < 2000 nM
IC50 (Csk): > 132000 nM

Clc1ccccc1-c1cc2ncnc(NN=Cc3cccs3)c2s1 [Compound 320, 2-Thiophenecarboxaldehyde(6-(2-chlorophenyl)thieno[3,2-d]pyrimidin-4-yl)hydrazone]
IC50 (Recombinant human Src; [1]): ≤ 2000 nM
IC50 (Recombinant human Src; [2]): < 2000 nM
IC50 (Csk): > 135000 nM

COc1ccc(-c2cc3ncnc(NN=Cc4ccc(OC)c(O)c4)c3s2)cc1 [Compound 408, 3-Hydroxy-4-methoxybenzaldehyde(6-(4-methoxyphenyl)thieno[3,2-d]pyrimidin-4-yl)hydrazone]
IC50 (Recombinant human Src; [1]): ≤ 2000 nM
IC50 (Recombinant human Src; [2]): < 2000 nM
IC50 (Csk): > 123000 nM

O=C(O)c1ccc(C=NNc2ncnc3cc(-c4ccc(Cl)cc4)sc23)cc1 [Compound 309, 4-Carboxybenzaldehyde(6-(4-chlorophenyl)thieno[3,2-d]pyrimidin-4-yl)hydrazone]
IC50 (Recombinant human Src; [1]): ≤ 2000 nM
IC50 (Recombinant human Src; [2]): < 2000 nM
IC50 (Csk): > 122000 nM

COc1ccc(-c2sc3c(NN=Cc4cccnc4)ncnc3c2C)cc1 [Compound 422, 3-Pyridinecarboxaldehyde(6-(4-methoxyphenyl)-7-methylthieno[3,2-d]pyrimidin-4-yl)hydrazone]
IC50 (Recombinant human Src; [1]): ≤ 2000 nM
IC50 (Recombinant human Src; [2]): < 2000 nM
IC50 (Csk): > 133000 nM

Cc1csc2c(NN=Cc3ccco3)ncnc12 [Compound 31, 2-Furancarboxaldehyde(7-methylthieno[3,2-d]pyrimidin-4-yl)hydrazone]
IC50 (Recombinant human Src; [1]): ≤ 2000 nM
IC50 (Recombinant human Src; [2]): < 2000 nM
IC50 (Csk): > 194000 nM

CCOc1ccc(C=NNc2ncnc3c(C)csc23)cc1 [Compound 48, 4-Ethoxybenzaldehyde(7-methylthieno[3,2-d]pyrimidin-4-yl)hydrazone]
IC50 (Recombinant human Src; [1]): ≤ 2000 nM
IC50 (Recombinant human Src; [2]): < 2000 nM
IC50 (Csk): > 160000 nM

Cc1c(-c2ccsc2)sc2c(NN=Cc3cccs3)ncnc12 [Compound 381, 2-Thiopnhenecarboxaldehyde(7-methyl-6-(3-thienyl)thieno[3,2-d]pyrimidin-4-yl)hydrazone]
IC50 (Recombinant human Src; [1]): ≤ 2000 nM
IC50 (Recombinant human Src; [2]): < 2000 nM
IC50 (Csk): > 140000 nM

Cc1csc2c(NN=Cc3ccsc3)ncnc12 [Compound 33, 3-Thiophenecarboxaldehyde(7-methylthieno[3,2-d]pyrimidin-4-yl)hydrazone]
IC50 (Recombinant human Src; [1]): ≤ 2000 nM
IC50 (Recombinant human Src; [2]): < 2000 nM
IC50 (Csk): > 182000 nM

COc1ccc(C=NNc2ncnc3c(C)csc23)cc1 [Compound 14, 4-Methoxybenzaldehyde(7-methylthieno[3,2-d]pyrimidin-4-yl)hydrazone]
IC50 (Recombinant human Src; [1]): ≤ 2000 nM
IC50 (Recombinant human Src; [2]): < 2000 nM
IC50 (Csk): > 168000 nM

Brc1csc2c(NN=Cc3cccnc3)ncnc12 [Compound 180, 3-Pyridinecarboxaldehyde(7-bromothieno[3,2-d]pyrimidin-4-yl)hydrazone]
IC50 (Recombinant human Src; [1]): ≤ 2000 nM
IC50 (Recombinant human Src; [2]): < 2000 nM
IC50 (Csk): > 150000 nM

Fc1ccc(C=NNc2ncnc3cc(-c4ccccc4)sc23)cc1 [Compound 75, 4-Fluorobenzaldehyde(6-phenylthieno[3,2-d]pyrimidin-4-yl)hydrazone]
IC50 (Recombinant human Src; [1]): ≤ 2000 nM
IC50 (Recombinant human Src; [2]): < 2000 nM
IC50 (Csk): > 144000 nM

Cc1c(-c2ccc(CO)cc2)sc2c(NN=Cc3cccnc3)ncnc12 [Compound 436, 3-Pyridinecarboxaldehyde(6-(4-hydroxymethylphenyl)-7-methylthieno[3,2-d]pyrimidin-4-yl)hydrazone]
IC50 (Recombinant human Src; [1]): ≤ 2000 nM
IC50 (Recombinant human Src; [2]): < 2000 nM
IC50 (Csk): > 133000 nM

Ic1cc2ncnc(NN=Cc3cccnc3)c2s1 [Compound 394, 3-Pyridinecarboxaldehyde(6-iodothieno[3,2-d]pyrimidin-4-yl)hydrazone]
IC50 (Recombinant human Src; [1]): ≤ 2000 nM
IC50 (Recombinant human Src; [2]): < 2000 nM
IC50 (Csk): > 131000 nM

CCCc1csc2c(NN=Cc3cccnc3)ncnc12 [Compound 264, 3-Pyridinecarboxaldehyde(7-propylthieno[3,2-d]pyrimidin-4-yl)hydrazone]
IC50 (Recombinant human Src; [1]): ≤ 2000 nM
IC50 (Recombinant human Src; [2]): < 2000 nM
IC50 (Csk): > 168000 nM

C(=NNc1ncnc2c(-c3ccsc3)csc12)c1cccnc1 [Compound 209]
IC50 (Recombinant human Src; [3]): > 148000 nM
IC50 (Csk): > 148000 nM
